These are literature values, as cited in patent US10159658B2, “Compositions comprising statins, biguanides and further agents for reducing cardiometabolic risk” (ELCELYX THERAPEUTICS, INC., priority 2011, dated 2018).

Each structure is given as a SMILES string.

The data set has as its system atherosclerotic plaque volume. As to conditions: diabetics; PERISCOPE, Nissen et al. JAMA 2008.

For `CCC1=C(C)CN(C(=O)NCCc2ccc(S(=O)(=O)NC(=O)N[C@H]3CC[C@H](C)CC3)cc2)C1=O` [Glimepiride], the “change of atherosclerotic plaque volume over time” value is 0.73%.
